Legend:
[1] = system: cholesterol biosynthesis; experiment: Test C: Inhibition of cholesterol biosynthesis in vivo; design: species or system Male Sprague-Dawley rats; conditions: oral, 0.2 mg/kg, rats; DPM/2 ml serum/2 hours
Protocol: Male Sprague-Dawley rats weighing about 150 g were fed normal Purina chow diet and water ad libitum, and exposed to 12 hours light/12 hours dark lighting pattern (2:00 PM-2:00 AM dark) prior to use for in vivo inhibition test of cholesterol biosynthesis. Animals were separated groups consisting of five rats as to be average mean body weight in each groups. Test compounds at dosage of 0.02-0.2 mg/kg body weight (0.4 ml/100 g body weight), were dissolved in water or suspended in 0 5% methyl cellulose and orally administered at 2-3 hours before mid-dark (8:00 PM), while cholesterol biosynthesis reaches to maximum in rats. As control, rats were orally administered only water or vehicle. At 90 minutes after sample administration, rats were injected intraperitoneally with 10 μCi of [2-^14 C]sodium acetate at volume of 0.2 ml per one. 2 Hours later, blood samples were obtained and serum were separated immediately. Total lipids were extracted according to the method of Folch et al. and saponified with EtOH-KOH. Nonsaponifiable lipids were extracted with petroleum ether and radio activity incorporated into nonsaponifiable lipids was counted.
Inhibitory activity was indicated as percent decrease of counts in testing groups (DPM/2 ml serum/2 hours) from that in control group.

[2] = system: cholesterol biosynthesis; experiment: Test A: Inhibition of cholesterol biosynthesis from acetate in vitro (rat liver microsome and sup fraction, [2-14C]sodium acetate); type: biochemical, male Wistar rat; conditions: for Relative activities by Test A: based on the activity of CS-514 by Test A being evaluated to be 1
Protocol: Enzyme solution was prepared from liver of male Wistar rat billialy connulated and discharged bile for over 24 hours. Liver was cut out at mid-dark and microsome and supernatant fraction which was precipitable with 40-80% of solution of ammonium sulfate (sup fraction) were prepared from liver homogenate according to the modified method of Knauss et. al.; Kuroda, M., et. al., Biochim. Biophys. Acta, 489, 119 (1977). For assay of cholesterol biosynthesis, microsome (0.1 mg protein) and sup fraction (1.0 mg protein) were incubated for 2 hours at 37° C. in 200 μl of the reaction mixture containing ATP; 1 mM, Glutathione; 6 mM, Glucose-1-phosphate; 10 mM, AND; 0.25 mM, NADP; 0.25 mM, CoA; 0.04 mM and 0.2 mM [2-^14 C]sodium acetate (0.2 μCi) with 4 μl of test compound solution dissolved in water or dimethyl sulfoxide. To stop reaction and saponify, 1 ml of 15% EtOH-KOH was added to the reactions and heated at 75° C. for 1 hour. Nonsaponifiable lipids were extracted with petroleum ether and incorporated ^14 C radioactivity was counted. Inhibitory activity of compounds was indicated with IC50.
With respect to the compounds of the present invention, the inhibitory activities against the cholesterol biosynthesis in which HMG-CoA reductase serves as a rate limiting enzyme, were measured by the above Test A and B. The results are shown in Tables 2, 3-1 and 3-2.
The relative activities of the compounds of the present invention based on the activities of CS-514 by Test A being evaluated to be 1, are shown in Table 2.

[3] = system: cholesterol biosynthesis in Hep G2 cells; experiment: Test B-1: Inhibition of cholesterol biosynthesis in culture cells (Hep G2, [2-14C]sodium acetate added at 0 hr); type: cell-based; conditions: for Relative activities by Test B-1: based on the activity of CS-514 by Test B-1 being evaluated to be 1; for inhibition at 1 µM: 1.0 × 10^-6 mol/l, read-out: Inhibitory activities at a concentration of 1.0 × 10^-6 mol/l by Test B-1 (Relative activities)
Protocol: Hep G2 cells at over 5th passage were seeded to 12 well plates and incubated with Dulbecco's modified Eagle (DME) medium containing 10% of fetal bovine serum (FBS) at 37° C., 5% CO2 until cells -were confluent for about 7 days. Cells were exposed to the DME medium containing 5% of lipoprotein deficient serum (LpDS) prepared by ultracentrifugation method for over 24 hours. Medium was changed to 0.5 ml of fresh 5% LpDS containing DME before assay and 10 μl of test compound solution dissolved in water or DMSO were added. 0.2 μCi of [2-^14 C]sodium acetate (20 μl) was added at 0 hr(B 1) or 4 hrs(B 2) after addition of compounds. After 4 hrs further incubation with [2-^14 C]sodium acetate, medium was removed and cells were washed with phosphate buffered saline (PBS) chilled at 4° C. Cells were scraped with rubber policeman and collected to tubes with PBS and digested with 0.2 ml of 0.5N KOH at 37° C. Aliquot of digestion was used for protein analysis and remaining was saponified with 1 ml of 15% EtOH-KOH at 75° C. for 1 hour. Nonsaponifiable lipids were extracted with petroleum ether and ^14 C radioactivity was counted. Counts were revised by cell protein and indicated with DPM/mg protein. Inhibitory activity of compounds was indicated with IC50. With respect to the compounds of the present invention, the inhibitory activities against the cholesterol biosynthesis in which HMG-CoA reductase serves as a rate limiting enzyme, were measured by the above Test A and B.

[4] = Test D: Acute toxicity; conditions: mouse, in vivo, 1000 mg/kg; oral, 1,000 mg/kg, 0.5% CMC suspension, ICR male mice (group of three); read-out: mortality after seven days
Protocol: A 0.5% CMC suspension of a test compound was orally administered to ICR male mice (group of three mice). The acute toxicity was determined based on the mortality after seven darys. With compound I-5-1, I-5-2, I-5-8, I-5-9 and I-5-10 of the present ivnention, the mortality was 0% even when they were orally administered in an amount of 1,000 mg/kg, respectively.

[5] = Homo sapiens, HepG2, Hep G2 cells

SMILES	Relative activities by Test A [2]	Relative activities by Test B-1 [3]	mortality at 168 h [4]	inhibition at 1 µM [3, 5]	other results
O=C1C[C@H](O)C[C@@H](/C=C/c2c(C3CC3)nc3sccc3c2-c2ccc(F)cc2)O1 (relative stereo) [Compound I-3-11, (E)-trans-6-[2'-(6"-cyclopropyl-4"-(4"'-fluorophenyl)-thieno[2,3-b]pyridin-5"-yl)ethenyl]-4-hydroxy-3,4,5,6-tetrahydro-2H-pyran-2-one]	–	–	–	–	percent decrease of counts relative to control group (Test C) [1]: 68%
CC[C@H](C)C(=O)O[C@H]1C[C@H](O)C=C2C=C[C@H](C)[C@H](CC[C@@H](O)C[C@@H](O)CC(=O)O)[C@H]21 [CS-514, reference compound]	–	–	–	–	IC50 ([2]; rat liver microsome + sup fraction, 2 hours at 37° C.): 9 nM; percent decrease of counts relative to control group (Test C) [1]: 34%; IC50 ([3]; Homo sapiens, HepG2, Hep G2 cells, [2-14C]sodium acetate added at 0 hr): 1370 nM
CCOC(=O)CC(O)CC(O)/C=C/c1c(C(C)C)nc2sc(C)c(CC)c2c1-c1ccc(F)cc1 (stereo not shown) [Compound I-1-1, Ethyl (E)-7-[3'-ethyl-4'-(4"-fluorophenyl)-2'-methyl-6'-(1"-methylethyl)thieno[2,3-b]pyridin-5'-yl]-3,5-dihydroxyhept-6-enoate]	0.50	196	–	–	–
CCc1c(C)sc2nc(C(C)C)c(/C=C/C(O)CC(O)CC(=O)O)c(-c3ccc(F)cc3)c12 (stereo not shown) [Compound I-5-1, Sodium (E)-7-[3'-ethyl-4'-(4"-fluorophenyl)-2'-methyl-6'-(1"-methylethyl)thieno[2,3-b]pyridin-5'-yl]-3,5-dihydroxyhept-6-enoate]	0.55	152	0%	–	–
Cc1cc2c(-c3ccc(F)cc3)c(/C=C/C(O)CC(O)CC(=O)O)c(C(C)C)nc2s1 (stereo not shown) [Compound I-5-2]	0.51	76	0%	–	–
CC(C)c1nc2sc(-c3ccccc3)cc2c(-c2ccc(F)cc2)c1/C=C/C(O)CC(O)CC(=O)O (stereo not shown) [Compound I-5-3]	–	–	–	46.8%	–
Cc1sc2nc(C(C)C)c(/C=C/C(O)CC(O)CC(=O)O)c(-c3ccc(F)cc3)c2c1-c1ccccc1 (stereo not shown) [Compound I-5-4]	–	1.4	–	48.2%	–
CC(C)c1cc2c(-c3ccc(F)cc3)c(/C=C/C(O)CC(O)CC(=O)O)c(C(C)C)nc2s1 (stereo not shown) [Compound I-5-5]	0.31	62	–	69.8%	–
CC(C)c1nc2sc3c(c2c(-c2ccc(F)cc2)c1/C=C/C(O)CC(O)CC(=O)O)CCCC3 (stereo not shown) [Compound I-5-6]	4.1	152	–	–	–
CCc1c(C)sc2nc(C3CC3)c(/C=C/C(O)CC(O)CC(=O)O)c(-c3ccc(F)cc3)c12 (stereo not shown) [Compound I-5-7]	0.36	–	–	64.1%	–
CC(C)c1nc2sc3c(c2c(-c2ccc(F)cc2)c1/C=C/C(O)CC(O)CC(=O)O)CCC3 (stereo not shown) [Compound I-5-8]	0.32	–	0%	63.6%	–
O=C(O)CC(O)CC(O)/C=C/c1c(C2CC2)nc2sc3c(c2c1-c1ccc(F)cc1)CCC3 (stereo not shown) [Compound I-5-9]	2.9	–	0%	62.4%	–
O=C(O)CC(O)CC(O)/C=C/c1c(C2CC2)nc2sc3c(c2c1-c1ccc(F)cc1)CCCCC3 (stereo not shown) [Compound I-5-10]	0.21	–	0%	53.6%	–
O=C(O)CC(O)CC(O)/C=C/c1c(C2CC2)nc2sccc2c1-c1ccc(F)cc1 (stereo not shown) [Compound I-5-11]	–	60	–	–	percent decrease of counts relative to control group (Test C) [1]: 65%
CCOC(=O)CC(=O)CC(O)/C=C/c1c(C(C)C)nc2sc(C)cc2c1-c1ccc(F)cc1 (stereo not shown) [II-2]	–	152	–	–	–
